These results are taken from PubChem BioAssay (NCI).

Among the test systems are TK-10 renal; UACC-62 melanoma; NCI-H226 lung; HOP-62 NSCLC; MDA-N; SF-295 CNS; EKVX NSCLC; SF-268 CNS; RPMI-8226 leukemia; SNB-75 CNS.
Holding throughout (assay): NCI anticancer screen, dose series, 48 h

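Cells were grown in 96-well plates and exposed to each compound for 48 hours at five concentrations; endpoints were interpolated linearly between bracketing concentrations, or set to the highest concentration if not reached. Definition used: TGI = concentration required for complete inhibition of growth.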 Where only a bound is given, the exact number is not on record here.

Take `Cc1cccc(C)c1Nc1nc(C)c(C(=O)CC(=O)C(=O)Nc2c(C(C)C)cccc2C(C)C)s1`: the TGI in the test on TK-10 renal, with UACC-62 melanoma, with NCI-H226 lung, in the test with HOP-62 NSCLC, in the test on MDA-N and in the test on SF-295 CNS was more than 100 µM each time. For the same compound, the TGI in the test on EKVX NSCLC, in the test with SF-268 CNS and in the test with RPMI-8226 leukemia was more than 100 µM in each case.

Consider `CCOC(=O)C1([Se]c2ccccc2)CCCC1=O` (configuration not stated), for which the TGI was more than 100 µM in the test with TK-10 renal; 35.2 µM with UACC-62 melanoma; 74.8 µM in the test on NCI-H226 lung; more than 100 µM with HOP-62 NSCLC; 69.1 µM in the test on SNB-75 CNS; more than 100 µM in the test on SF-295 CNS. Moreover, the TGI in the test on EKVX NSCLC came to 86.8 µM; in the test on SF-268 CNS it was 27.4 µM; with RPMI-8226 leukemia it was 55.4 µM.

As for `CCn1c(=O)c2nc(SC)sc2n(-c2ccccc2)c1=O`, the TGI in the test with TK-10 renal, with NCI-H226 lung, with HOP-62 NSCLC, in the test on MDA-N, with SNB-75 CNS and in the test on SF-295 CNS was more than 100 µM throughout. Besides, the TGI with SF-268 CNS and in the test on RPMI-8226 leukemia was more than 100 µM each time.

Regarding `COc1ccc2c(c1)c(=O)c1c(NCCN(C)C)ccc3nnn2c31`, the TGI with TK-10 renal amounted to 13.3 µM; in the test with UACC-62 melanoma, 17.8 µM; in the test on NCI-H226 lung, 9.44 µM; with HOP-62 NSCLC, 15.4 µM; in the test with SNB-75 CNS, 20.7 µM; in the test with SF-295 CNS, 13.9 µM. For the same compound, the TGI came out at 17.9 µM with EKVX NSCLC, 14.9 µM in the test on SF-268 CNS and 6.13 µM in the test on RPMI-8226 leukemia.

On to `CCN(CC)c1ccc2cc(C(=O)Nc3ccc(C)cc3)c(=N)oc2c1`, for which the TGI in the test on UACC-62 melanoma, with NCI-H226 lung, in the test with HOP-62 NSCLC, in the test on MDA-N, with SNB-75 CNS and in the test on EKVX NSCLC was more than 100 µM each time. In addition, the TGI in the test on SF-268 CNS and in the test on RPMI-8226 leukemia was more than 100 µM throughout.

Turning to `O=S(=O)(O)c1ccc2c(N=Nc3ccc(Cl)cc3)c(O)ccc2c1`, the TGI with TK-10 renal, with UACC-62 melanoma, in the test on HOP-62 NSCLC, with MDA-N, with SNB-75 CNS and in the test on SF-295 CNS was more than 100 µM in each case. For the same compound, the TGI in the test on EKVX NSCLC, with SF-268 CNS and in the test with RPMI-8226 leukemia was more than 100 µM in each case.

Regarding `O=C(Nc1cccc2ccccc12)c1ccccc1`, the TGI with TK-10 renal, in the test with UACC-62 melanoma, in the test with NCI-H226 lung, in the test with HOP-62 NSCLC, with MDA-N and with SNB-75 CNS was more than 100 µM in each case. Moreover, the TGI in the test with SF-295 CNS, in the test with EKVX NSCLC and in the test on SF-268 CNS was more than 100 µM throughout.

Consider `CO[C@@H]1C[C@H](OC(N)=O)[C@@H]2C=C[C@@H]3/C=C(C)/C=C/[C@@H](C)[C@H](/C(C)=C/[C@@H](C)NC(C)=O)OC(=O)/C=C/C=C(C)\C=C\[C@]3(C)[C@@H]2C1`, for which the TGI with UACC-62 melanoma came out at 0.292 µM; with HOP-62 NSCLC, 0.429 µM; in the test on MDA-N it was 2.12 µM; in the test on SNB-75 CNS, 0.0826 µM; in the test on SF-295 CNS, 0.111 µM; in the test with EKVX NSCLC, 0.843 µM. The values for the TGI with SF-268 CNS and with RPMI-8226 leukemia were 1.4 µM and 0.353 µM, respectively.

Consider `CSCCCNC(=O)c1csc(-c2csc(CCNC(=O)CNC(=O)CNC(=O)OC(C)(C)C)n2)n1`, for which the TGI in the test with TK-10 renal, in the test with UACC-62 melanoma, with NCI-H226 lung, with HOP-62 NSCLC, with MDA-N and in the test with SNB-75 CNS was more than 100 µM in each case. The TGI in the test with SF-295 CNS, with EKVX NSCLC and with SF-268 CNS was more than 100 µM throughout.

Take `COc1ccc(-n2c(=O)n(-c3ccccc3)c(=O)n2-c2ccc(OC)cc2)cc1`: the TGI in the test on TK-10 renal, with UACC-62 melanoma, with NCI-H226 lung, in the test on HOP-62 NSCLC, in the test on MDA-N and in the test with SNB-75 CNS was more than 100 µM throughout. Besides, the TGI in the test with SF-295 CNS, in the test on EKVX NSCLC and in the test with RPMI-8226 leukemia was more than 100 µM each time.

For `NC1Cc2ccccc2OC1=O` (configuration not stated), the TGI in the test on TK-10 renal, in the test with UACC-62 melanoma, with NCI-H226 lung, in the test with HOP-62 NSCLC, with SNB-75 CNS and with SF-295 CNS was more than 100 µM throughout. Besides, the TGI in the test on EKVX NSCLC, in the test with SF-268 CNS and with RPMI-8226 leukemia was more than 100 µM throughout.

In the case of `COc1cc2ccc1OCc1cccc(n1)COc1ccc(cc1OC)C=NCCNCCNCCN=C2`, the TGI in the test on TK-10 renal, in the test on UACC-62 melanoma, in the test with NCI-H226 lung, in the test on HOP-62 NSCLC, in the test on MDA-N and in the test with SNB-75 CNS was more than 100 µM throughout. Also, the TGI in the test on EKVX NSCLC and in the test on SF-268 CNS was more than 100 µM each time.

In the case of `C(=Nc1ccc(-c2nc3ccccc3[nH]2)cc1)c1ccco1`, the TGI with TK-10 renal, with UACC-62 melanoma, in the test with NCI-H226 lung, in the test with HOP-62 NSCLC, with MDA-N and with SNB-75 CNS was more than 100 µM in each case. For the same compound, the TGI in the test on EKVX NSCLC, in the test on SF-268 CNS and with RPMI-8226 leukemia was more than 100 µM each time.

In the case of `C#CC1(O)CCC2[C@@H]3CCc4cc(Oc5nc(F)nc(-c6c7ccccc7cn6C)n5)ccc4C3CC[C@@]21C` (some centres not stated), the TGI in the test on TK-10 renal, in the test with UACC-62 melanoma, with NCI-H226 lung, with HOP-62 NSCLC, in the test on SNB-75 CNS and in the test with SF-295 CNS was more than 100 µM in each case. In addition, the TGI in the test on EKVX NSCLC was more than 100 µM; in the test on SF-268 CNS it was more than 100 µM; in the test on RPMI-8226 leukemia it was more than 70.7 µM.
